This is an account of results in ChEMBL document CHEMBL1142766, “4-Fluorosulfonylpiperidines: selective 5-HT2A ligands for the treatment of insomnia” (Bioorg Med Chem Lett, 2005).

Bounds are passed on as bounds.

The target of data set [1] is 5-hydroxytryptamine receptor 2A (Homo sapiens, UniProt P28223). Briefly: Binding affinity against human 5-hydroxytryptamine 2A receptor.
The target in data set [2] is 5-hydroxytryptamine receptor 2A (Rattus norvegicus, UniProt P14842). Briefly: Binding affinity against rat 5-hydroxytryptamine 2A receptor.
Chain of 5-hydroxytryptamine receptor 2A (Rattus norvegicus, UniProt P14842) (P14842 whole entry): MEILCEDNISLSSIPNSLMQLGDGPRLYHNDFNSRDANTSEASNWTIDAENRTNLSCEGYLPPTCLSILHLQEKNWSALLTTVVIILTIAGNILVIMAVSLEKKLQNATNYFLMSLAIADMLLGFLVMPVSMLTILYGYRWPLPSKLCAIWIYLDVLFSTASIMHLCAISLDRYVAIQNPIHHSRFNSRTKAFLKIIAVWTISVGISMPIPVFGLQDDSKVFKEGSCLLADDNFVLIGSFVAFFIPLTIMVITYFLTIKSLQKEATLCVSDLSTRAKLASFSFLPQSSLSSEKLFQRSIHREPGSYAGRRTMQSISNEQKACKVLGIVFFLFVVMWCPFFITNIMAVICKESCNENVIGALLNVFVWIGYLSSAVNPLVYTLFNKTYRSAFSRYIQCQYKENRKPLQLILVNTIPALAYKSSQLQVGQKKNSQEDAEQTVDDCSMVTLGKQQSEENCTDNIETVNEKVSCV
In data set [3] the target is D(2) dopamine receptor (Homo sapiens, UniProt P14416). As to the kind of experiment: Binding affinity against human Dopamine receptor D2.
Chain of D(2) dopamine receptor (P14416 whole entry): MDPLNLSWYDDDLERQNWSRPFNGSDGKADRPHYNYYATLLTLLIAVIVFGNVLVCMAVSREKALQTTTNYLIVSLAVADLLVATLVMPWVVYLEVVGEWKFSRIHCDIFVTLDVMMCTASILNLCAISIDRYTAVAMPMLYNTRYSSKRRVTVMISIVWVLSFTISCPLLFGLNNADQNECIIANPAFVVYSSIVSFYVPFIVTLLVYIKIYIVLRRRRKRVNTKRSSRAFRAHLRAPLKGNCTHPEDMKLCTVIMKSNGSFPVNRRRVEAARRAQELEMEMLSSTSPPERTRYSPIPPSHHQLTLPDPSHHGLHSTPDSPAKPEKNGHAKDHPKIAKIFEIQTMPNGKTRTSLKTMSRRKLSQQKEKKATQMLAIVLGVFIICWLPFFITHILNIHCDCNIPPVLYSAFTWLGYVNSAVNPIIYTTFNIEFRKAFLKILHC
Data set [4] deals with 5-hydroxytryptamine receptor 2A (Rattus norvegicus) (UniProt P14842). Briefly: In vivo occupancy at rat 5-HT2A receptor at 30 min after dosing at 10 mg/kg per orally. It is filed as functional, organism-based.
Chain of 5-hydroxytryptamine receptor 2A (Rattus norvegicus) (P14842 whole entry): as the sequence (P14842 whole entry) above
The target in data set [5] is T1, 5-hydroxytryptamine receptor 2C (Homo sapiens, UniProt P28335).
T1 sequence (P28335 whole entry): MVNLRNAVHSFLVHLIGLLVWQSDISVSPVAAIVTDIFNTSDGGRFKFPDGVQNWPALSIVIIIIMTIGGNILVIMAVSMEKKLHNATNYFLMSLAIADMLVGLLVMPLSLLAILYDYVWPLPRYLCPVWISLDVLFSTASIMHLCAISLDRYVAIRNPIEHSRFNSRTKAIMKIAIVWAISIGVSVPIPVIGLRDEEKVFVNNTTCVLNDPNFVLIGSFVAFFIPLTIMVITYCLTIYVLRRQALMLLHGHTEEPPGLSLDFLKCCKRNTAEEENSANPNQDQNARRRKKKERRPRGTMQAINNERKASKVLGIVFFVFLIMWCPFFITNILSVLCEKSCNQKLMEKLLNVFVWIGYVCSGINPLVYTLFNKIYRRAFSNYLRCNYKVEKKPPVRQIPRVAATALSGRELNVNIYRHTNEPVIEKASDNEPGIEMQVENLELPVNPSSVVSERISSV
Description: Binding affinity against human 5-hydroxytryptamine 2c receptor

Data set [6] addresses Voltage-gated inwardly rectifying potassium channel KCNH2 (Homo sapiens, UniProt Q12809). As to the kind of experiment: Binding affinity against human IKr channel.
The nature of data set [7]: pKa value of the compound. The data set is classed as physicochemical.
Data set [8] is described as follows: Bioavailability in rat. The data set is classed as ADME, organism-based. The settings on record: in vivo.
Data set [9] can be described thus: Half life period was determined. The data set is classed as ADME. The conditions noted are these: rat.
Data set [10] can be described thus: Plasma clearance after i.v. administration in rat. It is filed as ADME, organism-based. The conditions noted are these: iv, read-out: Clp.

Chain of Voltage-gated inwardly rectifying potassium channel KCNH2 (Q12809 whole entry): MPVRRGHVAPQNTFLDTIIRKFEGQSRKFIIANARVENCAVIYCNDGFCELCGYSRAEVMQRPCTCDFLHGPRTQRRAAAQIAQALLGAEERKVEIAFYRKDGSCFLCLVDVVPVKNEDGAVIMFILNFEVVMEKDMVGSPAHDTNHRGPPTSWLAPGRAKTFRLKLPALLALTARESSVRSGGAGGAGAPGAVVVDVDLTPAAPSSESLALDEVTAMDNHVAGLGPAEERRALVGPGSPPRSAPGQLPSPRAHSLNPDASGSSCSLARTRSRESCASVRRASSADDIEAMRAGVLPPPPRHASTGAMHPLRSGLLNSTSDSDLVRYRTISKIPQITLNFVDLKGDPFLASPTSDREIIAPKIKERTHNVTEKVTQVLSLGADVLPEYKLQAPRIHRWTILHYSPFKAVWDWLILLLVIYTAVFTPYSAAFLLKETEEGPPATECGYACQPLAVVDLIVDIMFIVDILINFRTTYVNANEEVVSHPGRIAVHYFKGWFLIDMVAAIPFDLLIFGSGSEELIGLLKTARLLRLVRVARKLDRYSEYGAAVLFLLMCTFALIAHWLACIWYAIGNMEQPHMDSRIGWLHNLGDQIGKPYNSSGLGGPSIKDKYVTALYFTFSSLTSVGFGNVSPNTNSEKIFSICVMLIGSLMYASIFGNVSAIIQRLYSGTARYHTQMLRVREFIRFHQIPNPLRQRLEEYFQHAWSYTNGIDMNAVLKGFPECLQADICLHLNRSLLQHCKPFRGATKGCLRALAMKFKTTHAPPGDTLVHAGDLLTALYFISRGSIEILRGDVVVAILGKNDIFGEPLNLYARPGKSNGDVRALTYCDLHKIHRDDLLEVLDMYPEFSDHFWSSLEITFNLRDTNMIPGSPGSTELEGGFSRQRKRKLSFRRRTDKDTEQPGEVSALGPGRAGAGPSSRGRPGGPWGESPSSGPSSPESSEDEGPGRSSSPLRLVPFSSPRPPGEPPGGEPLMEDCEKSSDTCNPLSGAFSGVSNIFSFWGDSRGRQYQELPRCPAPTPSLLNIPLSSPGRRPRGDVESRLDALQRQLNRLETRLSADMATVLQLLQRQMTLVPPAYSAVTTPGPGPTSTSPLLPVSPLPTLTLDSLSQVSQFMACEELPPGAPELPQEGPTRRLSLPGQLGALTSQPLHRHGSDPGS
Chain of 5-hydroxytryptamine receptor 2A (Homo sapiens, UniProt P28223) (P28223 whole entry): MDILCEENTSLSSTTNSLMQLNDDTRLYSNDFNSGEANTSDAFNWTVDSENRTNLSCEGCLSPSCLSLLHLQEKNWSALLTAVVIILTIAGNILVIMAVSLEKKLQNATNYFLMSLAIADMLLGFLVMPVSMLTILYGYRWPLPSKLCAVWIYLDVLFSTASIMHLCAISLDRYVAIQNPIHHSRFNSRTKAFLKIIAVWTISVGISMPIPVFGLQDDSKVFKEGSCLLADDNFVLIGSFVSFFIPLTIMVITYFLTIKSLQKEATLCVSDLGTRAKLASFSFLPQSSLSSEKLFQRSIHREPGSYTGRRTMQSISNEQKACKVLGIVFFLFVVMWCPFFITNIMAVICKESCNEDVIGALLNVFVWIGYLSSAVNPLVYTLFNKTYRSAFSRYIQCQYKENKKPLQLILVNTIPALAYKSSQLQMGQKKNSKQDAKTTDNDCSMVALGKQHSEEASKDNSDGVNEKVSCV

Regarding `O=S(=O)(c1ccc(N2CCC2)cc1)C1(F)CCN(CCc2ccc(F)cc2F)CC1`, the Ki (in general, a measure of affinity in units of concentration, obtained from inhibition or displacement) is 1 nM in data set [1], 0.3 nM in data set [2], above 2000 nM in [3] and 844 nM in data set [5]. In [4], the Activity stood at 49.

In the case of `O=S(=O)(c1ccc(-n2cccn2)cc1)C1(F)CCN(CCc2ccc(F)cc2F)CC1`, the Ki in data set [1] was 2 nM; in [2], 1.6 nM; in data set [3], above 2000 nM; in data set [6], above 9000 nM; in data set [5], above 4000 nM. For the same compound, in [4], the Activity came out at 37.

Consider `O=S(=O)(c1ccccc1)C1CCN(CCc2ccc(F)cc2F)CC1`, for which the pKa (in general, the pH at which an ionisable group is half protonated) in data set [7] turned out to be 7.3.

In the case of `O=S(=O)(c1ccc(F)cc1)C1(F)CCN(CCc2ccc(F)cc2F)CC1`, the Ki worked out at 0.39 nM in data set [1]; 0.63 nM in data set [2]; 313 nM in [3]; 5560 nM in [6]; 176 nM in [5]. In addition, the bioavailability (usually the share of a dose that reaches the circulation, judged against a reference dose that is usually intravenous) in data set [8] was found to be 51%. For the same compound, the half-life (commonly how long it takes for the measured level to halve) in data set [9] is 3.8 h. For the same compound, in data set [10], the clearance is 69 mL/min. In data set [7], this compound had a pKa of 6.3. Besides, in [4], the Activity is 98%.

On to `O=S(=O)(c1cccc(F)c1)C1(F)CCN(CCc2ccc(F)cc2F)CC1`, for which the Ki in [1] was 0.3 nM; in [3] it was 791 nM; in data set [5], 49 nM.

Take `N#Cc1ccc(S(=O)(=O)C2(F)CCN(CCc3ccc(F)cc3F)CC2)cc1`: the Ki in [1] was found to be 2.7 nM; in data set [2], 1.33 nM; in [3], 863 nM; in data set [6] it was 2700 nM; in data set [5] it was 1490 nM. The compound also displayed a pKa in data set [7] of 6.4. In addition, the Activity in [4] is 80.

On to `O=S(=O)(c1ccccc1F)C1(F)CCN(CCc2ccc(F)cc2F)CC1`, for which the Ki in data set [1] was found to be 0.32 nM; in [3], 266 nM; in data set [6] it was 398 nM; in [5] it was 14 nM.

For `O=S(=O)(c1ccc(F)cc1)C1CCN(CCc2ccc(F)cc2F)CC1`, the pKa in data set [7] turned out to be 7.2.

On to `O=S(=O)(c1ccccc1)C1(F)CCN(CCc2ccc(F)cc2F)CC1`, for which the Ki in data set [1] is 0.68 nM; in data set [3], above 1000 nM; in data set [6] it was 2450 nM; in [5], 49 nM.

As to `O=S(=O)(c1ccc(-n2ccnn2)cc1)C1(F)CCN(CCc2ccc(F)cc2F)CC1`, the inhibition constant (Ki) in data set [1] is 0.66 nM; in data set [3], above 2000 nM; in data set [6], above 9000 nM; in data set [5] it was above 4000 nM. Further, in data set [4], the Activity turned out to be 62.

Take `O=C(CN1CCC(S(=O)(=O)c2ccccc2)CC1)c1ccc(F)cc1F`: the Ki in data set [1] is 2.4 nM; in data set [2], 0.51 nM; in data set [3], above 1500 nM; in [6], 6800 nM; in data set [5] it was 130 nM. The same compound gave a pKa in data set [7] of 6.3.

Regarding `O=S(=O)(c1ccc(Cl)cc1)C1(F)CCN(CCc2ccc(F)cc2F)CC1`, the Ki in data set [1] was 0.64 nM; in data set [3], above 1000 nM.
